The target of one experiment is GLP-1R (Homo sapiens, UniProt P43220). In words: cAMP accumulation assay, GLP-1R WT, mutant or modified constructs. In kind it is cell-based. Also on record: Flag; expressed in transfected cells; host or cells: HEK293T. The conditions noted are these: for EC50 / Emax: HEK293T; for Emax: HEK-293T. The method, then:
(§1) Human embryonic kidney 293 cells containing SV40 large T-antigen (HEK293T) were cultured in DMEM (Gibco) supplemented with 10% (v/v) fetal bovine serum (FBS, Gibco), 1 mM sodium pyruvate (Gibco) and 100 units/mL penicillin and 100 μg/mL streptomycin at 37 °C in 5% CO2. Chinese hamster ovary (CHO-K1) cells were cultured in F-12 (Gibco) containing 10% FBS, 100 units/mL penicillin and 100 μg/mL streptomycin at 37 °C in 5% CO2. For cAMP and receptor expression assays, HEK293T cells were seeded into 6-well cell culture plates at a density of 7 × 10^5 cells per well. After overnight incubation, cells were transfected with GIPR, GLP-1R or GCGR construct using Lipofectamine 2000 or Lipofectamine 3000 transfection reagent (Invitrogen). For whole-cell binding assay, CHO-K1 cells were seeded into 96-well fibronectin-treated cell culture plates at a density of 3 × 10^4 cells per well. After overnight incubation, cells were transfected with GIPR, GLP-1R or GCGR construct using Lipofectamine 2000 transfection reagent (Invitrogen). Following 24 h culturing, the transfected cells were ready for use.
The human GLP-1R was modified with its native signal sequence (M1-P23) replaced by the HA signal peptide to facilitate receptor expression. To obtain a GLP-1R–Gs complex with good homogeneity and stability, we used the NanoBiT tethering strategy, in which the C terminus of GLP-1R was directly attached to LgBiT subunit followed by a TEV protease cleavage site and a double MBP tag. […] The constructs were cloned into both pcDNA3.1 and pFastBac vectors for functional assays in mammalian cells and protein expression in insect cells, respectively. Other constructs including the full-length and various mutants of human GLP-1R were cloned into pcDNA3.1 vector for cAMP accumulation and whole-cell binding assays.
For GIPR, GLP-1R and GCGR, multi-targeting agonist stimulated cAMP accumulation was measured by a LANCE Ultra cAMP kit (PerkinElmer). After 24 h culture, the transfected cells were seeded into 384-well microtiter plates at a density of 3,000 cells per well in HBSS supplemented with 5 mM HEPES, 0.1% (w/v) BSA or 0.1% (w/v) casein and 0.5 mM 3-isobutyl-1-methylxanthine. The cells were stimulated with different concentrations of peptide agonists for 40 min at RT. Eu-cAMP tracer and ULight^TM-anti-cAMP were then diluted by cAMP detection buffer and added to the plates separately to terminate the reaction. Plates were incubated at RT for 1 h and the fluorescence intensity measured at 620 nm and […] by an EnVision multilabel plate reader (PerkinElmer).
On the technique in general: Changes in cAMP serve as a functional read-out for many G protein-coupled receptors.

The next experiment has as its target T1, GIPR (Homo sapiens, UniProt P48546).
T1 sequence (P48546 22-466): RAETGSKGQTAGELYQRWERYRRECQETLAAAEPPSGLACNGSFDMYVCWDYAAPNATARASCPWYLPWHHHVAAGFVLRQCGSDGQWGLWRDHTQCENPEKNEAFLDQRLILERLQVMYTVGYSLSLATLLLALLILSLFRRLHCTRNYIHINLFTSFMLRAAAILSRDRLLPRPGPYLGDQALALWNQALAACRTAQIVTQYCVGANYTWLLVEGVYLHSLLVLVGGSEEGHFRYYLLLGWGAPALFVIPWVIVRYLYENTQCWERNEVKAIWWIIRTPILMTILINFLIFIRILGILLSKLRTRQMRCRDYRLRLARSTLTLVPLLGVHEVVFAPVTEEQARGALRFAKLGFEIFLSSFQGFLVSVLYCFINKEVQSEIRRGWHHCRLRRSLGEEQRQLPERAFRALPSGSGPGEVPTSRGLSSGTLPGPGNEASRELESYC
The experiment in a line: Whole-cell binding assay, competition with 125I-GIP1-42. Also on record: acylated tirzepatide to the full-length or modified; Flag; expressed in transfected cells. The settings on record: CHO-K1. As to the method: as §1
For GIPR, CHO-K1 cells were cultured in F-12 medium with 10% FBS and seeded at a density of 30,000 cells/well in Isoplate-96 plates (PerkinElmer). The WT or mutant GIPR was transiently transfected using Lipofectamine 2000 transfection reagent as previous described. They were then washed twice using F-12 with 0.1% BSA or 0.1% casein, 33 mM HEPES, and incubated for 2 h at 37 °C. […] Following incubation, cells were washed three times with ice-cold PBS and lysed by addition of 50 μL lysis buffer (PBS supplemented with 20 mM Tris-HCl, 1% Triton X-100, pH 7.4). Fifty µL of scintillation cocktail (OptiPhase SuperMix, PerkinElmer) were added and the plates were subsequently counted for radioactivity (counts per minute, CPM) in a MicroBeta^2 microplate counter (PerkinElmer).

For a further experiment, the target named is GCGR (Homo sapiens, UniProt P47871). In words: Whole-cell binding assay, competition with 125I-GCG. The settings on record: GCGR WT, CHO-K1. Details: V5 (C); 6×His (C); expressed in transfected cells; host or cells: CHO-K1. The method, then:
as §1
For GLP-1R and GCGR, CHO-K1 cells (30,000 cells/well) were seeded into Isoplate-96 plates and incubated for 24 h at 37 °C in 5% CO2. The WT or mutant constructs were transiently transfected using Lipofectamine 2000 transfection reagent as previous described. They were then washed twice using F-12 with 0.1% BSA or 0.1% casein, 33 mM HEPES, and incubated for 2 h at 37 °C. […] Cells were washed three times with ice-cold PBS and lysed in PBS with 1% Triton X-100, 20 mM Tris-HCl. After addition of scintillation cocktail (PerkinElmer), radioactivity (CPM) was counted on a MicroBeta^2 microplate counter (PerkinElmer). Data were normalized to the WT response and analyzed using three-parameter logistic equation.

Setting [1] is: GLP-1R WT, 0.1% BSA, read-out: cAMP accumulation pEC50 (converted).
Where [2] appears, read: GLP-1R WT, 0.1% BSA, read-out: cAMP accumulation Emax.
Where [3] appears, read: GLP-1R WT, 0.1% casein, read-out: cAMP accumulation Emax.
Where [4] appears, read: GIPR WT, 0.1% casein, read-out: Binding pIC50 (converted).

Like-named read-outs stand apart in the source and are kept apart here. Where a SMILES comes first, the peptide text is derived from it. [ ]: non-standard residue; d: D form. Aib = CC(C)(N)C(=O)O

GLP-1R, sequence (P43220 24-463): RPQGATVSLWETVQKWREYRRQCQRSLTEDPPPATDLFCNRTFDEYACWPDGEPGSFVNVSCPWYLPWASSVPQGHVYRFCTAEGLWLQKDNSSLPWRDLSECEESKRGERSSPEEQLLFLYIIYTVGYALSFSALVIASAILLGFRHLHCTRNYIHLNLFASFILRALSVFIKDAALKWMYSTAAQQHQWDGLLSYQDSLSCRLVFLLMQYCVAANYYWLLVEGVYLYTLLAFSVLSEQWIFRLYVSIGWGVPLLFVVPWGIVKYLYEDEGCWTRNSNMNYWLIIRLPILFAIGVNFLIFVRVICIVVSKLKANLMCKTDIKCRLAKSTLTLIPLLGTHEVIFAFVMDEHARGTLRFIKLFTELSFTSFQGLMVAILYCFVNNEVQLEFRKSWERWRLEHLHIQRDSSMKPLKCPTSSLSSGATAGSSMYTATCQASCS
GCGR, sequence (P47871 26-477): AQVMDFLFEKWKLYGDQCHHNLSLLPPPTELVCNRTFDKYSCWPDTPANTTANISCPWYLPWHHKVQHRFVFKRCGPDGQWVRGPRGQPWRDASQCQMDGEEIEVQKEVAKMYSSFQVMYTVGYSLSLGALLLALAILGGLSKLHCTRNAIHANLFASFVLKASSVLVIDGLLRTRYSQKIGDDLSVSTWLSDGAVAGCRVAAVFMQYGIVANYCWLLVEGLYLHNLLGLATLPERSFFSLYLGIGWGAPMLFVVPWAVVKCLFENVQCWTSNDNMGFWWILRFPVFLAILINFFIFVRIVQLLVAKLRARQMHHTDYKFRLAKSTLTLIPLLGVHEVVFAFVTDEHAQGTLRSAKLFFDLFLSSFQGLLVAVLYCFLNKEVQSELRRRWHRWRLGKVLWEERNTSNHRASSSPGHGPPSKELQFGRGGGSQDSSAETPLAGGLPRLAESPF

For orientation: Emax means the maximal effect, on the per cent scale that the assay sets. As to `CC(C)C[C@H](NC(=O)[C@H](CC(C)C)NC(=O)[C@H](Cc1c[nH]c2ccccc12)NC(=O)[C@H](CCC(N)=O)NC(=O)[C@@H](NC(=O)[C@H](Cc1ccccc1)NC(=O)[C@H](CC(=O)O)NC(=O)[C@H](CCC(N)=O)NC(=O)[C@H](C)NC(=O)[C@H](C)NC(=O)[C@H](CCCNC(=N)N)NC(=O)[C@H](CCC(=O)O)NC(=O)[C@H](CC(=O)O)NC(=O)[C@H](CC(C)C)NC(=O)[C@H](Cc1ccc(O)cc1)NC(=O)[C@H](CCCCN)NC(=O)[C@H](CO)NC(=O)[C@H](CCCCN)NC(=O)[C@H](CC(=O)O)NC(=O)[C@H](CO)NC(=O)[C@@H](NC(=O)[C@H](Cc1ccccc1)NC(=O)[C@@H](NC(=O)CNC(=O)[C@H](CCC(N)=O)NC(=O)C(C)(C)NC(=O)[C@@H](N)Cc1c[nH]cn1)[C@@H](C)O)[C@@H](C)O)C(C)C)C(=O)N[C@@H](CC(=O)O)C(=O)NCC(=O)NCC(=O)N1CCC[C@H]1C(=O)N[C@@H](CO)C(=O)N[C@@H](CO)C(=O)NCC(=O)N[C@@H](C)C(=O)N1CCC[C@H]1C(=O)N1CCC[C@H]1C(=O)N1CCC[C@H]1C(=O)N[C@@H](CO)C(N)=O` [Non-lipidated peptide 20] (H-H[Aib]QGTFTSDKSKYLDERAAQDFVQWLLDGGPSSGAPPPS-NH2; N-terminus and C-terminus assumed), the EC50 on GLP-1R (setting [1]) was 0.00288 nM. Further, the “influence on cAMP accumulation vs peptide 20” value on GLP-1R (GLP-1R, 0.1% BSA) is listed as “inappreciably influenced”. Besides, the Emax at GLP-1R (setting [2]) came to 99.7 ± 1.41%; at GLP-1R (setting [3]), 99.2 ± 1.39%. In addition, the IC50 was 51.3 nM at GIPR (GIPR WT, 0.1% BSA, read-out: Binding pIC50 (converted)) and 170 nM on GIPR (setting [4]). Besides, the “binding Span” value at GCGR (0.1% BSA) and at GCGR (0.1% casein) was “N.B” throughout. Moreover, the “binding pIC50” value at GCGR (0.1% BSA) and on GCGR (0.1% casein) was “N.B” in each case.

As for `CC[C@H](C)[C@H](NC(=O)[C@H](CC(C)C)NC(=O)[C@H](Cc1c[nH]c2ccccc12)NC(=O)[C@H](CCC(N)=O)NC(=O)[C@@H](NC(=O)[C@H](Cc1ccccc1)NC(=O)[C@H](C)NC(=O)[C@H](CCCCN)NC(=O)[C@H](CCC(N)=O)NC(=O)[C@H](C)NC(=O)[C@@H](NC(=O)[C@H](CCCCN)NC(=O)[C@H](CC(=O)O)NC(=O)[C@H](CC(C)C)NC(=O)C(C)(C)NC(=O)[C@@H](NC(=O)[C@H](CO)NC(=O)[C@H](Cc1ccc(O)cc1)NC(=O)[C@H](CC(=O)O)NC(=O)[C@H](CO)NC(=O)[C@@H](NC(=O)[C@H](Cc1ccccc1)NC(=O)[C@@H](NC(=O)CNC(=O)[C@H](CCC(=O)O)NC(=O)C(C)(C)NC(=O)[C@@H](N)Cc1ccc(O)cc1)[C@@H](C)O)[C@@H](C)O)[C@@H](C)CC)[C@@H](C)CC)C(C)C)C(=O)N[C@@H](C)C(=O)NCC(=O)NCC(=O)N1CCC[C@H]1C(=O)N[C@@H](CO)C(=O)N[C@@H](CO)C(=O)NCC(=O)N[C@@H](C)C(=O)N1CCC[C@H]1C(=O)N1CCC[C@H]1C(=O)N1CCC[C@H]1C(=O)N[C@@H](CO)C(N)=O` [Non-acylated tirzepatide], the EC50 is 0.00468 nM at GLP-1R (setting [1]) and 0.00794 nM at GLP-1R (GLP-1R, effect of tirzepatide acylation, read-out: cAMP pEC50 (converted)). Moreover, the maximum response (Emax) on GLP-1R (setting [2]) came out at 99.1 ± 1.65%; on GLP-1R (setting [3]) it was 98.76 ± 0.97%; on GLP-1R (GLP-1R, effect of tirzepatide acylation, read-out: cAMP Emax) it was 100 ± 0.88%. The “binding Span” value on GIPR (GIPR WT, 0.1% casein) is reported as 88.80 ± 5.25; at GIPR (GIPR, effect of tirzepatide acylation) it was 90.71 ± 3.70 % WT or Tirzepatide. Moreover, the IC50 at GIPR (setting [4]) was 3.39 nM; on GIPR (GIPR, effect of tirzepatide acylation, read-out: binding pIC50 (converted)), 12.6 nM.

The record behind these values is publication PMC8881610 (Nature Communications, 2022).
